# In PubChem BioAssay AID180 (DTP/NCI, 2004):
# Values joined by “and” are separate entries in the source; they are usually repeats but may differ in a detail not shown here. Identical values can stand only once.
# Tested on: BDF1 mice, Adenocarcinoma 755 s.c., tumor weight T/C
# Assay: NCI In Vivo Anticancer Drug Screen. Data for tumor model Adenocarcinoma 755 (subcutaneous) in B6D2F1 (BDF1) mice
# Conditions: endpoint: mean tumor weight, higher = larger tumour
# Method in brief: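 Compound activity was tested in mice carrying transplanted tumors. Survival or tumor size was measured, and each value is the treated-group measurement divided by that of the vehicle-treated control group (T/C).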
# [1] = dose: 15.0 mg/kg/injection, schedule: Q01DX011 (ip), vehicle: methylcellulose (MC)
# [2] = dose: 31.0 mg/kg/injection, schedule: Q01DX011 (ip), vehicle: methylcellulose (MC)
# [3] = dose: 62.0 mg/kg/injection, schedule: Q01DX011 (ip), vehicle: methylcellulose (MC)
# [4] = dose: 125.0 mg/kg/injection, schedule: Q01DX011 (ip), vehicle: methylcellulose (MC)
# [5] = dose: 250.0 mg/kg/injection, schedule: Q01DX011 (ip), vehicle: methylcellulose (MC)
structure (smiles),measurement,setting,value
c1ccc2nc(-c3cc4ccccc4s3)ccc2c1,T/C,"dose: 133.0 mg/kg/injection, schedule: Q01DX011 (ip), vehicle: carboxymethylcellulose (CMC)",42 % of control
same,T/C,"dose: 133.0 mg/kg/injection, schedule: Q01DX011 (ip), vehicle: saline",42 % of control
same,T/C,"dose: 200.0 mg/kg/injection, schedule: Q01DX011 (ip), vehicle: carboxymethylcellulose (CMC)",53 % of control
same,T/C,"dose: 200.0 mg/kg/injection, schedule: Q01DX011 (ip), vehicle: saline",39 % of control
same,T/C,"dose: 300.0 mg/kg/injection, schedule: Q01DX011 (ip), vehicle: carboxymethylcellulose (CMC)",24 % of control
same,T/C,"dose: 300.0 mg/kg/injection, schedule: Q01DX011 (ip), vehicle: saline",34 % of control
same,T/C,"dose: 450.0 mg/kg/injection, schedule: Q01DX011 (ip), vehicle: saline",21 % of control
CC(=O)[C@H]1[C@H](O)C[C@H]2[C@@H]3CCC4=CC(=O)CC[C@]4(C)[C@@]3(F)[C@@H](O)C[C@@]21C,T/C,"dose: 100.0 mg/kg/injection, schedule: Q01DX011 (sc), vehicle: steriod suspending solution",48 % of control
same,T/C,"dose: 125.0 mg/kg/injection, schedule: Q01DX011 (oral), vehicle: steriod suspending solution",74 % of control
same,T/C,"dose: 200.0 mg/kg/injection, schedule: Q01DX011 (sc), vehicle: steriod suspending solution",38 % of control
same,T/C,"dose: 250.0 mg/kg/injection, schedule: Q01DX011 (oral), vehicle: steriod suspending solution",57 % of control
same,T/C,"dose: 400.0 mg/kg/injection, schedule: Q01DX011 (sc), vehicle: steriod suspending solution",36 % of control
same,T/C,"dose: 500.0 mg/kg/injection, schedule: Q01DX011 (oral), vehicle: steriod suspending solution",62 % of control
same,T/C,"dose: 800.0 mg/kg/injection, schedule: Q01DX011 (sc), vehicle: steriod suspending solution",26 % of control
same,T/C,"dose: 1000.0 mg/kg/injection, schedule: Q01DX011 (oral), vehicle: steriod suspending solution",58 % of control
CC1CN(Cc2ccccc2)C(=S)N(c2ccccc2)C1=O (stereo unspecified),T/C,[1],87 % of control
same,T/C,[2],74 % of control
same,T/C,[3],96 % of control
same,T/C,[4],97 % of control
same,T/C,[5],82 % of control
O=C(OCC1OC(n2cnc3c(=O)[nH]cnc32)CC1OC(=O)c1ccccc1)c1ccccc1 (stereo unspecified),T/C,"dose: 60.0 mg/kg/injection, schedule: Q01DX011 (ip), vehicle: carboxymethylcellulose (CMC)",101 % of control
same,T/C,"dose: 120.0 mg/kg/injection, schedule: Q01DX011 (ip), vehicle: carboxymethylcellulose (CMC)",90 % of control
CC(=O)OCC(=O)[C@@]1(O)CC[C@H]2[C@@H]3CCC4=CC(=O)CC[C@]4(C)[C@H]3[C@@H](O)C[C@@]21C,T/C,"dose: 1.13 mg/kg/injection, schedule: Q01DX011 (sc), vehicle: steriod suspending solution",225 % of control
same,T/C,"dose: 2.25 mg/kg/injection, schedule: Q01DX011 (sc), vehicle: steriod suspending solution",109 % of control
same,T/C,"dose: 2.5 mg/kg/injection, schedule: Q01DX011 (ip), vehicle: steriod suspending solution",60 % of control
same,T/C,"dose: 3.75 mg/kg/injection, schedule: Q01DX011 (sc), vehicle: steriod suspending solution",117 % of control
same,T/C,"dose: 4.5 mg/kg/injection, schedule: Q01DX011 (sc), vehicle: steriod suspending solution",153 % of control
same,T/C,"dose: 5.0 mg/kg/injection, schedule: Q01DX011 (ip), vehicle: steriod suspending solution",73 % of control
same,T/C,"dose: 5.0 mg/kg/injection, schedule: Q01DX011 (sc), vehicle: steriod suspending solution",56 % of control
same,T/C,"dose: 7.5 mg/kg/injection, schedule: Q01DX011 (sc), vehicle: steriod suspending solution",85 % of control
same,T/C,"dose: 9.0 mg/kg/injection, schedule: Q01DX011 (sc), vehicle: steriod suspending solution",54 % of control
same,T/C,"dose: 10.0 mg/kg/injection, schedule: Q01DX006 (iv), vehicle: steriod suspending solution",88 % of control
same,T/C,"dose: 10.0 mg/kg/injection, schedule: Q01DX011 (ip), vehicle: steriod suspending solution",50 % of control
same,T/C,"dose: 10.0 mg/kg/injection, schedule: Q01DX011 (sc), vehicle: steriod suspending solution",33 % of control
same,T/C,"dose: 20.0 mg/kg/injection, schedule: Q01DX006 (iv), vehicle: steriod suspending solution",32 % of control
same,T/C,"dose: 20.0 mg/kg/injection, schedule: Q01DX011 (ip), vehicle: steriod suspending solution",17 % of control
same,T/C,"dose: 20.0 mg/kg/injection, schedule: Q01DX011 (sc), vehicle: steriod suspending solution",63 % of control
same,T/C,"dose: 30.0 mg/kg/injection, schedule: Q01DX011 (sc), vehicle: steriod suspending solution",19 % of control and 28 % of control
same,T/C,"dose: 31.25 mg/kg/injection, schedule: Q01DX011 (sc), vehicle: steriod suspending solution",19 % of control
same,T/C,"dose: 40.0 mg/kg/injection, schedule: Q01DX006 (iv), vehicle: steriod suspending solution",66 % of control
same,T/C,"dose: 40.0 mg/kg/injection, schedule: Q01DX011 (sc), vehicle: steriod suspending solution",15 % of control
same,T/C,"dose: 45.0 mg/kg/injection, schedule: Q01DX011 (sc), vehicle: steriod suspending solution",27 % of control
same,T/C,"dose: 50.0 mg/kg/injection, schedule: Q01DX011 (sc), vehicle: steriod suspending solution",16 % of control
same,T/C,"dose: 62.5 mg/kg/injection, schedule: Q01DX011 (sc), vehicle: steriod suspending solution",21 % of control
same,T/C,"dose: 70.0 mg/kg/injection, schedule: Q01DX001 (sc), vehicle: steriod suspending solution",34 % of control and 41 % of control
same,T/C,"dose: 70.0 mg/kg/injection, schedule: Q07DX002 (sc), vehicle: steriod suspending solution",17 % of control
same,T/C,"dose: 80.0 mg/kg/injection, schedule: Q01DX006 (iv), vehicle: steriod suspending solution",19 % of control
same,T/C,"dose: 125.0 mg/kg/injection, schedule: Q01DX011 (sc), vehicle: steriod suspending solution",2 % of control
same,T/C,"dose: 140.0 mg/kg/injection, schedule: Q01DX001 (sc), vehicle: steriod suspending solution",23 % of control and 43 % of control
same,T/C,"dose: 160.0 mg/kg/injection, schedule: Q01DX006 (iv), vehicle: steriod suspending solution",28 % of control
same,T/C,"dose: 280.0 mg/kg/injection, schedule: Q01DX001 (sc), vehicle: steriod suspending solution",32 % of control and 46 % of control
same,T/C,"dose: 280.0 mg/kg/injection, schedule: Q07DX002 (sc), vehicle: steriod suspending solution",14 % of control
Cn1c(=O)c2c(nc(C(O)(c3ccccc3)c3ccccc3)n2C)n(C)c1=O,T/C,"dose: 40.0 mg/kg/injection, schedule: Q01DX011 (ip), vehicle: methylcellulose (MC)",122 % of control
same,T/C,"dose: 75.0 mg/kg/injection, schedule: Q01DX011 (ip), vehicle: methylcellulose (MC)",66 % of control
Cn1ncc2c([N+](C)(C)C)ncnc21,T/C,"dose: 25.0 mg/kg/injection, schedule: Q01DX011 (ip), vehicle: saline",82 % of control
same,T/C,"dose: 75.0 mg/kg/injection, schedule: Q01DX011 (ip), vehicle: saline",111 % of control
Cc1cc(N(CCCl)CCCl)ccc1N=Nc1ccccc1C(=O)O,T/C,"dose: 0.44 mg/kg/injection, schedule: Q01DX011 (ip), vehicle: carboxymethylcellulose (CMC)",115 % of control
same,T/C,"dose: 0.87 mg/kg/injection, schedule: Q01DX011 (ip), vehicle: carboxymethylcellulose (CMC)",39 % of control
same,T/C,"dose: 1.75 mg/kg/injection, schedule: Q01DX011 (ip), vehicle: carboxymethylcellulose (CMC)",53 % of control
same,T/C,"dose: 3.5 mg/kg/injection, schedule: Q01DX011 (ip), vehicle: carboxymethylcellulose (CMC)",20 % of control
O=C1NC(=O)C(c2ccccc2)(c2ccc(Cl)cc2Cl)N1 (stereo unspecified),T/C,"dose: 28.0 mg/kg/injection, schedule: Q01DX011 (ip), vehicle: carboxymethylcellulose (CMC)",54 % of control
same,T/C,"dose: 28.0 mg/kg/injection, schedule: Q01DX011 (ip), vehicle: saline",65 % of control
same,T/C,"dose: 56.0 mg/kg/injection, schedule: Q01DX011 (ip), vehicle: carboxymethylcellulose (CMC)",79 % of control
same,T/C,"dose: 56.0 mg/kg/injection, schedule: Q01DX011 (ip), vehicle: saline",89 % of control
same,T/C,"dose: 112.0 mg/kg/injection, schedule: Q01DX011 (ip), vehicle: carboxymethylcellulose (CMC)",62 % of control
same,T/C,"dose: 112.0 mg/kg/injection, schedule: Q01DX011 (ip), vehicle: saline",64 % of control
same,T/C,"dose: 224.0 mg/kg/injection, schedule: Q01DX011 (ip), vehicle: saline",24 % of control
N#CCCNC(=O)Nc1ccccc1,T/C,[1],63 % of control
same,T/C,[2],74 % of control
same,T/C,[3],58 % of control
same,T/C,[4],101 % of control
same,T/C,[5],93 % of control
CC[N+]([O-])(CC)c1n(C)c2c(=O)n(C)c(=O)n(C)c2[n+]1[O-],T/C,"dose: 30.0 mg/kg/injection, schedule: Q01DX011 (ip), vehicle: methylcellulose (MC)",93 % of control
same,T/C,"dose: 60.0 mg/kg/injection, schedule: Q01DX011 (ip), vehicle: methylcellulose (MC)",96 % of control
same,T/C,"dose: 120.0 mg/kg/injection, schedule: Q01DX011 (ip), vehicle: methylcellulose (MC)",110 % of control
same,T/C,"dose: 240.0 mg/kg/injection, schedule: Q01DX011 (ip), vehicle: methylcellulose (MC)",70 % of control
